# Literature values as cited in US20100272789A1, “EXTERNAL MEDICINE FOR TREATMENT OR PREVENTION” (priority 2007, published 2010).
# Conditions: 20 degrees Celsius at 1 atm
compound,measurement,value
"[HH] [hydrogen molecules, hydrogen]",solubility of hydrogen molecules into water,1.6 µg/mL
